Measured values from BindingDB's records for doi:10.1016/S0960-894X(97)00246-1 (1997).

Key:
[1] = target: Group IIA secretory phospholipase A2 (Homo sapiens); experiment: Compound was measured for the inhibitory activity against Secretory phospholipase A 2 (s-PLA2)
[2] = target: Group IIA secretory phospholipase A2 (Homo sapiens); experiment: Compound was measured for the inhibitory activity against secretory-phospholipase A2 (s-PLA2)

Structure (SMILES)	IC50 [1] [µM]	IC50 [2] [µM]
CCCCCCCCOP(=O)(O)c1cccc2ccc(C(=O)O)cc12 [8-(Hydroxy-octyloxy-phosphoryl)-naphthalene-2-carboxylic acid]	> 200	
CCCCCCCCCCCCCCCCCCOP(=O)(O)c1cccc2ccc(C(=O)O)cc12 [8-(Hydroxy-octadecyloxy-phosphoryl)-naphthalene-2-carboxylic acid]		3.9
O=C(O)c1ccc2cccc(C(=O)C(F)(F)F)c2c1 [8-(2,2,2-Trifluoro-acetyl)-naphthalene-2-carboxylic acid]	2.4	
CCCCCCCOc1ccc(C(=O)O)cc1CC(=O)C(F)(F)F [4-Heptyloxy-3-(3,3,3-trifluoro-2-oxo-propyl)-benzoic acid]	1.7	
CCCCCCCCCCOP(=O)(O)c1cc(OCc2ccccc2)ccc1/C=C/C(=O)O [(E)-3-[4-Benzyloxy-2-(decyloxy-hydroxy-phosphoryl)-phenyl]-acrylic acid]	4.5	
